# Where two headings read alike, the source gives them in different places. Numbered stars: 1 amine (or outer) side, 2 acyl side, 3 side chain; on linkers, the order of the positions; unused ones are H or OH. Bridge positions count the residues as written; N and C are the ends. Square brackets hold non-standard residues; d marks the D form. Peptide text beside a SMILES is read from it. * marks the point of attachment. Leu(3R-OH,Nα-propionyl) = CCC(=O)N[C@H](C(=O)*)[C@H](O)C(C)C; X1 = CC(C)[C@@H](O[*:3])[C@H](N[*:1])C(=O)[*:2]; NMeT = CN[C@H](C(=O)O)[C@@H](C)O; dPhLac = O=C(O)[C@H](O)Cc1ccccc1; NMeA = CN[C@@H](C)C(=O)O; NMeDha = C=C(NC)C(=O)O
# How the values were obtained:
# [1] = system: hippocampal and cortical neurons; assay: Ca^2+ imaging (Fura-8 AM) in primary neuronal cultures; assay type: cell-based, mice; settings: for elevation of [Ca^2+] / percentage of tested cells that responded to carbachol: 300 μM carbachol
# Description: Primary neuronal cells were plated onto precoated cover slides at a density of 5 × 10^5 and maintained at 37 °C in a 5% CO2 humidified atmosphere. On DIV7, cells were loaded with the calcium-sensitive dye Fura-8 AM; 3 µM Fura-8 was added to normal growth medium and the cells incubated at 37 °C for 30 min. Cells were then washed and incubated with HBSS with or without 1 µM FR900359 for 30 min. Coverslips were then placed into a microscope chamber containing HBSS and assays were performed as described previously ([46]).
# chemokine CXCR4 = settings: ref [10], [41]; cited from earlier work
# [2] = molecular target: muscarinic receptor (total muscarinic-receptor subtypes); assay: [^3H]NMS saturation binding on membrane preparations of cortex and hippocampus; design: species or system mice; settings: mean ± SD, five animals
# Excerpt: We performed [^3H]NMS-binding studies on membrane preparations as described previously ([20]).
# muscarinic receptor = assay: [^3H]NMS binding on intact primary neuronal cells; design: species or system mice; settings: read-out: dissociation constant (Kd) of the radioligand
# Description: Primary neuronal cells were seeded at a density of 5 × 10^4 cells/well onto a 96-well plate and maintained at 37 °C in a 5% CO2 humidified atmosphere. On the sixth day in vitro, cells were washed twice with binding buffer (110 mM NaCl, 5.4 mM KCl, 1.8 mM CaCl2, 1 mM MgSO4, 25 mM glucose, 20 mM 4-(2-hydroxyethyl)-1-piperazineethanesulfonic acid [HEPES], 58 mM sucrose). A range of [^3H]NMS concentrations (between 0 and 10 nM) were added to appropriate wells containing buffer or 10-µM atropine to determine total and nonspecific binding in 100 µL of final-volume binding buffer. Plates were incubated for 2 h at 37 °C and the reactions were terminated by removal of the binding mixture followed by 3 × 200 µL/well ice-cold NaCl 0.9% washes. We added 100 µL/well of Microscint-20, and the plates were sealed before overnight incubation at room temperature on a rapidly shaking platform. Bound ligand was determined using a Packard Topcount NXT (Perkin-Elmer Life Sciences).
# D3 dopamine receptor = system: D3 dopamine receptor; design: method as in PMID 28522847; settings: ref [40]; cited from earlier work
smiles,measurement,setting,value
"C=C1C(=O)N[C@@H](C)C(=O)N(C)[C@@H](C)C(=O)N[C@@H]([C@H](OC(=O)[C@@H](NC(=O)CC)[C@H](O)C(C)C)C(C)C)C(=O)N(C)[C@@H]([C@@H](C)OC)C(=O)O[C@H](C(C)C)[C@H](NC(C)=O)C(=O)O[C@H](Cc2ccccc2)C(=O)N1C [FR900359] (Ac-[X1][dPhLac][NMeDha]A[NMeA][X1](Leu(3R-OH,Nα-propionyl))[NMeT](Me); ester 1-C)",effect on carbachol-induced elevation of [Ca^2+],"[1]; pretreatment with 1 µM FR900359 for 30 min, P < 0.001",prevented
CC1(C)CN2C(CSC(=NC3CCCCC3)NC3CCCCC3)=CSC2=N1 [IT1t],effect on dimers of CXCR4,chemokine CXCR4,disrupt dimers of the chemokine CXCR4
Nc1ncnc2c1ncn2[C@@H]1O[C@H](COP(=O)(O)OP(=O)(O)OP(=O)(O)O)[C@@H](O)[C@H]1O [adenosine triphosphate],elevation of intracellular [Ca^2+],"[1]; 10 μM ATP added after carbachol, cells from M1-KO mice",able to elicit rapid elevation of intracellular [Ca^2+]
C[N+](C)(C)CCOC(N)=O [carbachol],elevation of [Ca^2+],[1]; cells from M1-KO mice,did not promote a large increase of [Ca^2+]
same,elevation of [Ca^2+],[1]; neuronal cultures from WT and homozygous M1-mEGFP mice,promoted elevation of [Ca^2+]
same,percentage of tested cells that responded to carbachol,"[1]; neurons from M1-mEGFP mice, mean ± SD",36.7% ± 4.0%
same,percentage of tested cells that responded to carbachol,[1]; neurons from WT mice,26.8% ± 3.4%
O=C(CCCN1CCC(O)(c2ccc(Cl)cc2)CC1)c1ccc(F)cc1 [haloperidol],effect on dimers of the D3 dopamine receptor,D3 dopamine receptor,destabilize dimers of the D3 dopamine receptor
O=C(CCCN1CCC2(CC1)C(=O)NCN2c1ccccc1)c1ccc(F)cc1 [spiperone],effect on dimers of the D3 dopamine receptor,D3 dopamine receptor,destabilize dimers of the D3 dopamine receptor

# Reference: PMC9214538, “The M1 muscarinic receptor is present in situ as a ligand-regulated mixture of monomers and oligomeric complexes” (Proceedings of the National Academy of Sciences of the …, 2022)
